# According to patent US9579325B2, “Modulators of TNF-α signaling” (Genzyme Corporation, priority 2000, dated 2017):
# pIC50: −log10 of the molar value.
# How the values were obtained:
# [1] = system: Vascular Cell Adhesion Molecule (VCAM) expression in primary human umbilical vein endothelial cells; test: VCAM High Throughput Screen (TNF-α driven VCAM expression); assay type: cell-based; conditions: HUVEC, TNF 1.0 ng/ml
# Excerpt: (§1) Description of Table V: The results shown in Table V were obtained using the TNF-α assays performed as described in the protocols entitled “Method for TNF High Throughput Screen” and “Method for VCAM High Throughput Screen”, which are detailed below. These assays measure a cellular response to TNF-α stimulation, and the data published in the table are expressed as percentage inhibitions. Percentage inhibition is computed on a scale of 0 to 100% where 0 percent inhibition means the compound has no effect in the assay (the response is indistinguishable from TNF-α treatment alone), and 100% inhibition means that when the compound is present at the stated concentration, the response in the assay is the same as if TNF-α were not added. These two assays measure two different outcomes of TNF-α treatment, cell death and Vascular Cell Adhesion Molecule (VCAM) expression, and capture two of TNF-α's many biological effects. TNF-α induced apoptosis is a mechanism by which TNF-α production during immune/inflammatory responses can lead to direct cellular and tissue damage. TNF-α VCAM expression in endothelial cells is a response that allows leukocytes to leave the blood and enter a site of immune/inflammatory response. Both of these activities could lead to pathology in immune/inflammatory diseases. In the first column of the table, the percentage inhibition of the TNF-α driven apoptosis assay when the compounds are tested at 1 μM concentration is presented. The second column in the table lists the IC50 for the compound, a standard measure using a dilution series in the assay, and fitting a sigmoidal curve to the resulting dose-response curve. The IC50 is the concentration (derived analytically from the sigmoidal function) at which the compound would inhibit 50% of the response in the assay. The third and fourth column list the corresponding analysis for the TNF-α driven VCAM assay. In Table VI, data corresponding to the data in column 1 of Table V is shown, with human cells replacing the mouse cells used in the high throughput screen. […] As a consequence, the compounds will have use in treating more than one TNF-α mediated condition, and may be selected according to the manner in which the condition manifests. This corresponds to the use of these compounds in the treatment of human disease.
# • 1. Plate 4×10^4 L929 cells in 100 μl of complete EMEM in Costar 96 well plates in PM. • 2. The next day, pretreat with compound, inhibitor and control vehicle for 2 hours. • 3. After 2 hours pretreatment, add 10 μl 5 ng/ml human TNF-α and actinomycin D (40 μg/ml final concentration). • 4. Incubate overnight. • 5. In AM, remove supernatant. • 6. Wash on a plate washer (0.9% NaCl). • 7. […] Shake plates on orbital shaker and read at 595 nm on plate reader. […]
# C57/BL mouse = test: Sepsis model: murine LPS-d-galactosamine model; assay type: in vivo; conditions: prevention of mortality over three days
# Procedure: Sepsis was induced in the C57/BL mouse by the intravenous injection of 20 ng of lipopolysaccharide/animal plus 20 mgs d-galactosamine/animal. Inhibition was measured as the prevention of mortality over a three day period. Compounds were administered intraperitoneally in 10% cremophore/10% ethanol/80% normal saline one hour before induction.
# male rats = test: Inflammatory Bowel Disease model: rat DNBS distal colitis; assay type: in vivo; conditions: 7 doses
# Procedure: Groups of three male rats weighing 150+/−10 g and fasted for 24 hours were used. Distal colitis was induced by intracolonic instillation of 0.5 ml/rat DNBS (2,4-dinitrobenzene sulfonic acid, 60 mg/ml in ethanol 30%) after which air (2 ml) was gently injected through the cannula to ensure that the solution remains in the colon. A test compound was administered orally 24 and 2 hours before DNBS-instillation and then daily for 5 days in a total of 7 doses. The animals were sacrificed 24 hours after the final dose of test compound administration and each colon was removed and weighed.
# [2] = Pharmacokinetic parameters; assay type: in vivo; conditions: for half-life: unit and species not given, read-out: Pharmacokinetic Parameters t1/2 (converted)
# L929 cells = test: TNF High Throughput Screen (TNF-α driven apoptosis assay); assay type: cell-based, mouse; conditions: Mus musculus, human TNF-α + actinomycin D; for pIC50: read-out: TNFα IC50; for inhibition at 1 µM: compound at 1 μM, read-out: TNFα % Inh. @ 1 μM
# Excerpt: as §1
# TNF High Throughput Screen.
# • 1. Plate 4×10^4 L929 cells in 100 μl of complete EMEM in Costar 96 well plates in PM. • 2. The next day, pretreat with compound, inhibitor and control vehicle for 2 hours. • 3. After 2 hours pretreatment, add 10 μl 5 ng/ml human TNF-α and actinomycin D (40 μg/ml final concentration). • 4. Incubate overnight. • 5. In AM, remove supernatant. • 6. Wash on a plate washer (0.9% NaCl). • 7. Add 100 μl Crystal Violet 0.1% in 20% ETOH. • 8. Incubate at RT for 10 minutes. • 9. Wash on plate washer. • 10. Air dry wells at 37° C. • 11. Add 100 μl of methanol to each well. • 12. Shake plates on orbital shaker and read at 595 nm on plate reader. VCAM High Throughput Screen: Protocol: • 1. Plate Primary human umbilical vein endothelial cells at 1.8×10^4 cells/well in a 96-well tissue culture plate. • 2. Return Plates to 37° C. incubator for 48-72 hours before assay. • 3. On assay day, aspirate wells and add 1804, of endothelial growth cell medium (EGM) to each well. • 4. Add Compound to each well. • 5. Shake plates for 3 minutes. • 6. Incubate plate for 1 hour at 37° C. • 7. Add Tumor Necrosis Factor (TNF) at 1.0 ng/ml final concentration. • 8. Shake plates for 3 minutes. • 9. Incubate plate for 2 hours at 37° C. • 10. Remove plate from incubator and wash plate 3 times with phosphate buffered saline (PBS) using a plate washer. • 11. Add anti-VCAM antibody at 0.5 μg/ml final concentration. • 12. Incubate at 4° C. overnight. • 13. Wash 3 times with PBS on plate washer. • 14. Add goat anti-mouse horseradish peroxidase conjugate. • 15. Incubate at room temperature for one hour. • 16. Wash 3 times with PBS on plate washer. • 17. […]
compound,measurement,setting,value
"Cc1nn(-c2nccc(-c3ccccn3)n2)c(C)c1SCc1ccc(Cl)cc1 [Compound 119, 2-[4-(4-Chloro-benzylsulfanyl)-3,5-dimethyl-pyrazol-1-yl]-4-pyridin-2-yl-pyrimidine]",pIC50,[1],5.10
same,Sepsis: Murine LPS-d-galactosamine model % inhibition,C57/BL mouse; 200 mg/kg intraperitoneally one hour before induction,33 @ 200 mg/kg %
same,Inflammatory Bowel Disease: Rat DNBS model % inhibition of colonic weight gain,male rats; 100 mg/kg orally,51% @ 100 mg/kg
same,half-life,[2]; in vivo,138 min
same,Pharmacokinetic Parameters % oral bioavailability,[2]; species not given,Undetectable
"Cc1nn(-c2nccc(-c3ccccn3)n2)c(C)c1S(=O)(=O)Cc1ccc(Cl)cc1 [Compound 124, 2-[4-(4-Chloro-phenylmethanesulfonyl)-3,5-dimethyl-pyrazol-1-yl]-4-pyridin-2-yl-pyrimidine]",pIC50,[1],4.87
COc1ccc(C(C(=O)NCC(c2ccccc2)c2ccccc2)N(CCc2c[nH]cn2)C(=O)c2ccccc2C(=O)c2ccccc2)cc1C (stereo not drawn) [Compound 42],pIC50,L929 cells,6.11
same,pIC50,[1],4.80
O=C(c1ccccc1)c1ccccc1C(=O)N(CCc1c[nH]cn1)C(Cc1ccccc1)C(=O)NCC(c1ccccc1)c1ccccc1 (racemic) [Compound 43],pIC50,L929 cells,5.53
same,Sepsis: Murine LPS-d-galactosamine model % inhibition,C57/BL mouse; 10 mg/kg intraperitoneally one hour before induction,33 @ 10 mg/kg %
same,Inflammatory Bowel Disease: Rat DNBS model % inhibition of colonic weight gain,male rats; 50 mg/kg orally,31% @ 50 mg/kg
same,bioavailability,"[2]; in vivo, po, species not given",< 1%
same,half-life,[2]; in vivo,216 min
COc1ccc(CCNC(=O)C(c2cccc(C#N)c2)N(CCc2c[nH]cn2)C(=O)CCC(C)=O)cc1 (stereo not drawn) [Compound 73],inhibition at 1 µM,L929 cells,76%
"Cc1nn(-c2nccc(-c3ccccn3)n2)c(C)c1Oc1ccc(CN2CCN(Cc3ccccc3)CC2)cc1 [Compound 104, 2-{4-[4-(4-Benzyl-piperazin-1-ylmethyl)-phenoxy]-3,5-dimethyl-pyrazol-1-yl}-4-pyridin-2-yl-pyrimidine]",pIC50,L929 cells,7.30
COc1cccc(C(=O)N(CCc2c[nH]cn2)C(C(=O)NCCC(c2ccccc2)c2ccccc2)c2cccc(C#N)c2)c1OC (stereo not drawn) [Compound 66],inhibition at 1 µM,L929 cells,51%
N#Cc1cccc(C(C(=O)NCC(c2ccccc2)c2ccccc2)N(CCc2c[nH]cn2)C(=O)c2c[nH]nc2N)c1 (stereo not drawn) [Compound 81],inhibition at 1 µM,L929 cells,50%
N#Cc1cccc(C(C(=O)NC(c2ccccc2)c2ccccc2)N(CCc2c[nH]cn2)C(=O)c2ccccc2C(=O)c2ccccc2)c1 (stereo not drawn) [Compound 2],pIC50,L929 cells,5.25
Cc1cccc(C(C(=O)NCC(c2ccccc2)c2ccccc2)N(CCc2c[nH]cn2)C(=O)c2ccccc2C(=O)c2ccccc2)c1 (stereo not drawn) [Compound 7],pIC50,L929 cells,5.40
N#Cc1cccc(C(C(=O)NC(c2ccccc2)c2ccccc2)N(CCc2c[nH]cn2)C(=O)c2ccccc2Oc2ccccc2)c1 (stereo not drawn) [Compound 89],inhibition at 1 µM,L929 cells,56%
COc1cccc(CC(C(=O)NCC(c2ccccc2)c2ccccc2)N(CCc2c[nH]cn2)C(=O)c2ccccc2C(=O)c2ccccc2)c1 (stereo not drawn) [Compound 34],pIC50,L929 cells,5.81
